According to patent publication US20100273772A1, “Bisaryl Alkynylamides as Negative Allosteric Modulators of Metabotropic Glutamate Receptor 5 (MGLUR5)” (Wyeth LLC, priority 2009, published 2010):

Assays:
[1] = target: T1, metabotropic glutamate receptor 5 (Rattus norvegicus, UniProt P31424); experiment: FLIPR Calcium 3 fluorescence-based functional assay of intracellular calcium, mGluR5 antagonist activity; format: cell-based; conditions: inhibition of glutamate (EC90, ~50 uM) stimulated calcium levels, mGluR5 HEK-293 cells; read-out: mGluR5 FLIPR MP Antagonist DR IC50
T1 construct: expressed in transfected cells; host or cells: HEK-293
T1 sequence (P31424 21-1203): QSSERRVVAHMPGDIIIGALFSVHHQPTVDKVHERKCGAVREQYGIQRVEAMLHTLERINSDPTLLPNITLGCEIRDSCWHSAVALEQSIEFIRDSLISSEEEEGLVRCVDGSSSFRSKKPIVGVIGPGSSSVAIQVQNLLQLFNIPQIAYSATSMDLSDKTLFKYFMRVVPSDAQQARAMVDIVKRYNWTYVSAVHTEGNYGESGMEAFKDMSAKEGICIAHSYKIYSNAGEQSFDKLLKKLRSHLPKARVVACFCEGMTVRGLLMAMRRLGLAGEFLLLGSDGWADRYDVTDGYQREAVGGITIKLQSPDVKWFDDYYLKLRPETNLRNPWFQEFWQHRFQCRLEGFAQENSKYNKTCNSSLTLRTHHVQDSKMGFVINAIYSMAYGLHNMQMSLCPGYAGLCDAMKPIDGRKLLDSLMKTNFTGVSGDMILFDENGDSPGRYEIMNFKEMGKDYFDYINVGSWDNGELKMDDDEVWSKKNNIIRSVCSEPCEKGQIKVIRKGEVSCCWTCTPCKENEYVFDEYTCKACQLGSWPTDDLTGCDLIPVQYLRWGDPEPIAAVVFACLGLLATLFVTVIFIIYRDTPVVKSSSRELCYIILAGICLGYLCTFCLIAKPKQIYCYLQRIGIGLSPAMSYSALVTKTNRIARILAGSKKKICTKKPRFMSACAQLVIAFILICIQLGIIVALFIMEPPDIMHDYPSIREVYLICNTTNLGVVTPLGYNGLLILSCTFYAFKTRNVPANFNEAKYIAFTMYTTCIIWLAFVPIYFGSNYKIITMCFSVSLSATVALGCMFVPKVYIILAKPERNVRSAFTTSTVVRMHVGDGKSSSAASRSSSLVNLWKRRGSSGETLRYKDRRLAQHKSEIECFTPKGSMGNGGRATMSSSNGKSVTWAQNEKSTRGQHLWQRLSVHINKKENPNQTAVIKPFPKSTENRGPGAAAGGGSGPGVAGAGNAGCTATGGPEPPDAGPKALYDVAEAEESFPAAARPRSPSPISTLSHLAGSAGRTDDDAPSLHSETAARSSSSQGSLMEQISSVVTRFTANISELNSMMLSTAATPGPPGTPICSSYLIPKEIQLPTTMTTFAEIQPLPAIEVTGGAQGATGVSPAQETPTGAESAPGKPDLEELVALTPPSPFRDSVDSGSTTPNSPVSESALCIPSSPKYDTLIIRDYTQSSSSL
From the text: (§1) where [L]=concentration of free radioligand and Kd=dissociation constant of radioligand for the receptor. TITLE: Identification of metabotropic glutamate receptor 5 antagonists using a stable, sensitive fluorescence-based screening system PURPOSE: The aim of the research presented here was to develop a robust functional assay to measure changes in intracellular calcium, with the goal of identifying potent mGluR5 antagonists.
The FLIPR Calcium 3 Assay Kit is designed to work with many cell types, both adherent and non-adherent. Optimal cell conditions for the FLIPR Calcium 3 Assay Kit require the creation of a confluent cell monolayer before placing the plates in FLIPR or FlexStation. In general, we start with 50,000 mGluR5 HEK-293 cells/well for a 96-well plate. For adherent cells, seeding cells overnight with a plating volume of 100 μL/well worked for 96-well plates.
Remove cell plates from the incubator. Remove the supernatant medium. Add 180 ul of Loading Buffer to each well (for 96-well plates). HBSS buffer component B) pipette 100 mL of 10× Hank's Balanced Salt Solution and 20 mL of 1M Hepes buffer
Incubate cell plates for 1 hour at 37° C. and then keep the plates at room temperature until used.
After incubation, transfer the plates directly to FLIPR and begin the calcium assay as described in the FLIPR system manual. For a signal test, a starting average count of ˜10,000 is recommended. Recommended experimental setup parameters are as follows. Faster addition speeds can lead to better mixing of compounds and lower signal variance across the plate.
Test or reference compound is added to the 96-well plate (manually). […] Relative Fluorescence Units (RFUs) are recorded over a given time period (stated above) depending on the platform system used.
For antagonists, results are expressed as % inhibition of glutamate stimulated Calcium levels. IC50 values were calculated by Prism GraphPad using a 4-parameter logistic equation. IC50 values are calculated using GraphPad by fitting to a 1 site-model.

rat mGluR5 receptor = target: T2, rat mGluR5 receptor (Rattus norvegicus, UniProt P31424); experiment: [3H]-MPEP binding HEK-293 cell membranes expressing a rat mGluR5 receptor; conditions: displacement of 4 nM [3H]-MPEP, HEK-293 cell membranes expressing rat mGluR5, 60 minute at room temperature; read-out: mGluR5 Ligand Binding DR Ki
T2 construct: expressed in transfected cells; host or cells: HEK-293
T2 sequence (P31424 21-1203): as above
Description: TITLE: [^3H]-MPEP binding HEK-293 cell membranes expressing a rat mGluR5 receptor. PURPOSE: To identify high affinity compounds at the rat mGluR5 receptor based on their ability to displace the mGluR5 negative allosteric modulator, MPEP.
mGluR5 expressing HEK-293 cells are scraped off the plate, transferred to centrifuge tubes, and washed twice by centrifugation (2000 rpm for 10 min., 4° C.) in buffer (50 mM Tris pH 7.5). The resulting pellets are aliquoted and placed at −80° C. On the day of assay, the cells are thawed on ice, and resuspended in buffer. The binding assay is performed in a 96 well microtiter plate in a total volume of 250 μL. Non-specific binding is determined in the presence of 10 μM MPEP. Binding reaction includes a final radioligand [^3H]-MPEP concentration of 4 nM and 12-25 ug membrane protein per well. Following a 60 minute incubation at room temperature, the reaction is terminated by the addition of ice cold buffer and rapid filtration through a GF/B filter presoaked for 30 minutes in 0.5% PEI. Compounds are initially tested in a single point assay to determine percent inhibition at 10 μM. Subsequently, Ki values are determined for compounds defined to be active.
% inhibition and Ki values generated by GraphPad Prism and Excel Fit. IC50 values are calculated using GraphPad by fitting to a 1 or 2 site-binding model. Ki values are calculated from the apparent IC50 values using the Cheng-Prussof equation:
as §1

Compound | IC50 [1] [nM] | Ki (rat mGluR5 receptor) [nM]
COc1ccc(C(=O)N2Cc3cccnc3C2)cc1C#Cc1ccccn1 [Example 54, 6-{[4-methoxy-3-(pyridin-2-ylethynyl)phenyl]carbonyl}-6,7-dihydro-5H-pyrrolo[3,4-b]pyridine] | 8 | 26
COc1ccc(C(=O)N2CCOc3ccccc3C2)cc1C#Cc1ccccn1 [Example 55, 4-{[4-methoxy-3-(pyridin-2-ylethynyl)phenyl]carbonyl}-2,3,4,5-tetrahydro-1,4-benzoxazepine] | 12 | 29
COc1ccc(C(=O)N2CCc3ccccc3CC2)cc1C#Cc1ccccn1 [Example 57, 3-{[4-methoxy-3-(pyridin-2-ylethynyl)phenyl]carbonyl}-2,3,4,5-tetrahydro-1H-3-benzazepine] | 17 | 15
COc1ccc(C(=O)N2CCc3[nH]cnc3C2)cc1C#Cc1ccccn1 [Example 58, 5-{[4-methoxy-3-(pyridin-2-ylethynyl)phenyl]carbonyl}-4,5,6,7-tetrahydro-1H-imidazo[4,5-c]pyridine] | 18 | 57
COc1ccc(C(=O)N2CCCc3ccccc3C2)cc1C#Cc1ccccn1 [Example 59, 2-{[4-methoxy-3-(pyridin-2-ylethynyl)phenyl]carbonyl}-2,3,4,5-tetrahydro-1H-2-benzazepine] | 29 | 42
O=C(c1ccc(Cl)c(C#Cc2ccccn2)c1)N1Cc2ccccc2C1 [Example 60, 2-[4-Chloro-3-(pyridin-2-ylethynyl)benzoyl]isoindoline] | 6 | 1

Further lines, results first:

IC50 [1] [nM] | Ki (rat mGluR5 receptor) [nM] | Compound
13 | 0.4 | O=C(c1ccc(Cl)c(C#Cc2ccccn2)c1)N1CCc2ccccc2C1 [Example 61, 2-[4-Chloro-3-(pyridin-2-ylethynyl)benzoyl]-1,2,3,4-tetrahydroisoquinoline]
9 | 5 | O=C(c1ccc(Cl)c(C#Cc2ccccn2)c1)N1CCc2cccnc2C1 [Example 62, 7-{[4-chloro-3-(pyridin-2-ylethynyl)phenyl]carbonyl}-5,6,7,8-tetrahydro-1,7-naphthyridine]
14 | 0.2 | O=C(c1ccc(Cl)c(C#Cc2ccccn2)c1)N1CCc2c(F)ccc(F)c2C1 [Example 63, 2-{[4-chloro-3-(pyridin-2-ylethynyl)phenyl]carbonyl}-5,8-difluoro-1,2,3,4-tetrahydroisoquinoline]
16 | 0.4 | O=C(c1ccc(Cl)c(C#Cc2ccccn2)c1)N1CCc2c(F)cccc2C1 [Example 64, 2-{[4-chloro-3-(pyridin-2-ylethynyl)phenyl]carbonyl}-5-fluoro-1,2,3,4-tetrahydroisoquinoline]
18 | 3 | O=C(c1ccc(Cl)c(C#Cc2ccccn2)c1)N1Cc2cccnc2C1 [Example 65, 6-{[4-chloro-3-(pyridin-2-ylethynyl)phenyl]carbonyl}-6,7-dihydro-5H-pyrrolo[3,4-b]pyridine]
11 | 4 | O=C(c1ccc(Cl)c(C#Cc2ccccn2)c1)N1CCc2[nH]ncc2C1 [Example 66, 5-{[4-chloro-3-(pyridin-2-ylethynyl)phenyl]carbonyl}-4,5,6,7-tetrahydro-1H-pyrazolo[4,3-c]pyridine]
27 | 16 | O=C(c1ccc(Cl)c(C#Cc2ccccn2)c1)N1CCc2[nH]cnc2C1 [Example 67, 5-{[4-chloro-3-(pyridin-2-ylethynyl)phenyl]carbonyl}-4,5,6,7-tetrahydro-1H-imidazo[4,5-c]pyridine]
26 | 4 | O=C(c1ccc(Cl)c(C#Cc2ccccn2)c1)N1CCc2ncccc2C1 [Example 68, 6-{[4-chloro-3-(pyridin-2-ylethynyl)phenyl]carbonyl}-5,6,7,8-tetrahydro-1,6-naphthyridine]
134 | 0.1 | O=C(c1ccc(Cl)c(C#Cc2ccccn2)c1)N1CCc2c(Cl)cccc2C1 [Example 69, 5-chloro-2-{[4-chloro-3-(pyridin-2-ylethynyl)phenyl]carbonyl}-1,2,3,4-tetrahydroisoquinoline]
